Patent US20050244387A1, “Entomopathogenic nematodes and methods of their use” (priority 2004, published 2005)

Tests used:
Assay type in all cases: in vivo
[1] = system: second instar Popillia japonica grub populations; assay: Microplot (cylinder) field trials, Trials 1-4; details: Ohio
Protocol: Microplot trials consisted of field plots in which PVC cylinders, 20 cm inside diameter, were inserted to a depth of about 7 cm. Four microplot trials (Trials 14) were conducted on second instar P. japonica grubs.
P. japonica adults were caged in the PVC cylinders to obtain grub populations following the methods described by Klein et al. (2000). Adult beetles were lured to Trece Catch Can traps (Trece Inc., Adair, Okla.) using a feeding lure containing PEG (phenol ethyl propionate, eugenol, and geraniol) and collected. Twice, at 1-week intervals, 30 adults consisting of approximately 50% females (measured volumetrically) were placed in each cylinder and covered with a nylon 20 mesh screen to induce egg laying within the cylinder area. The ovipositing beetles were fed fresh apple slices dusted with Brewer's yeast twice a week. Fourteen days after the initial caging, the nylon screens were removed. The developing grub population was monitored until the larvae reached the second instar, when all curative treatments were applied.
Trials 1, 2, and 4 were located at the Ohio Agricultural Research and Development Center, Wooster, Ohio whereas trial 3 was located at the TrueGreen Technical Center in Delaware, Ohio. Trials 1, 2, and 4 were set up on 1.5-m by 0.9-m plots, separated by 0.9 m alleyways, arranged in a complete randomized block design with four replications/treatment. For these trials, turf consisted of 70% Kentucky bluegrass and 30% dicot and monocot weed species, with level topography and no thatch was observed. Soil was a silt loam, with 2.8% OM, pH 6.0, 11.4 CEC. Trial 3 was conducted on Kentucky bluegrass lawn using 2.44 by 2.44 m plots arranged in a completely randomized block design with 5 replications/treatment. Soil was also a silt loam. Supplemental irrigation was applied prior to treatments to optimize beetle egg hatch and maintain actively growing turfgrass at both locations.
The nematodes were applied in 100 ml of water at 2.5×10^9 IJs/ha as a curative treatment to each cylinder except for trial 3, in which they were applied at 5.0×10^9 IJs/ha in 7.6 liters of water per plot with a hand held sprinkling can. Chemical insecticides were included for comparison in three of the trials. In trial 1, halofenozide was applied at 1.61 kg active ingredient (a.i.)/ha on Jul. 13, 2000 as a preventive treatment prior to P. japonica egg laying with a CO2 sprayer and Teejet 8015 nozzles at 2.81 kg/cm^2 (40 psi) delivering 1630 liters/ha. In trial 2, imidacloprid (Merit 75 WP) was applied at 0.33 kg a.i./ha on July 14 and trichlorfon granules (Dylox 6.2G) at 9.0 kg a.i./ha with a shaker on September 14. In trial 3, trichlorofon was applied as in trial 2. All plots received post-application irrigation (see Table 2).
(§1) Efficacy data from all field trials were obtained from six, 18×18×7 cm deep samples removed from the middle of each plot. Soil from each square was lifted with a spade and placed in a plastic dishpan and the number of live grubs counted by hand sifting the soil and turf.
(§2) Data on the total numbers of surviving grubs from each plot were subjected to the analysis of variance following the log10 […] transformation using Statsoft (1999) for each trial and means were separated by Tukey's mean separation test at P=0.05. In cylinder studies, the number of surviving grubs from all cylinders were pooled by plot. […]. For predictability analysis, all data on the mean percentage control of all white grubs were pooled by treatment and subjected to the analysis of variance using Statsoft (1999) following arcsine transformation. Only trichlorfon was included in these analyses as it is applied as a curative treatment just like the nematodes.

Popillia japonica grubs = assay: Large field plot trial 5, golf course fairway; details: Trial 5, Mansfield, Ohio, autumn 2001, nematodes 2.5 × 10^9 IJ/ha, imidacloprid 0.33 kg, trichlorfon 9.0 kg, applied September 11, data October 9
Protocol: (§3) Four field plot trials (Trials 5-8) were conducted on natural populations of P. japonica and C. borealis, or both species if they occurred together. Trial 5 was conducted on a naturally occurring mixed population of P. japonica and C. borealis grubs on a fairway at Wooldridge Woods Golf Course in Mansfield, Ohio in autumn 2001. Plots measuring 3-m by 3-m and separated by 0.9-m alleyways were arranged in a complete randomized block design with five replications/treatment. All treatments including imidacloprid (Merit 75WP) and trichlorfon (Dylox 6.2G) were applied on the morning of September 11 as curative treatments. Liquid applications were made with a sprinkling can at a volume of 8 liters/plot. Nematodes were applied at 2.5×10^9 IJ/ha. The trichlorfon granules were applied using a Gandy Drop Spreader (Gandy Company, Owatonna, Minn.). Grub population consisted of 30% second and 70% third instar P. japonica, and 100% third instar C. borealis. Turf consisted of 70% Kentucky bluegrass and 30% annual bluegrass, topography level, height 2.5 cm, and had no thatch.
as §1, §2

[2] = system: Cyclocephala borealis grubs; assay: Large field plot trial 5, golf course fairway; details: Trial 5, Mansfield, Ohio, autumn 2001; nematodes 2.5 × 10^9 IJ/ha, imidacloprid 0.33 kg, trichlorfon 9.0 kg; applied September 11, data October 9
Protocol: as §3, §1, §2

[3] = system: mixed populations of third instar Popillia japonica and Cyclocephala borealis grubs; assay: Large field plot trials 6 and 7, Kentucky bluegrass lawn; details: Ohio, autumn 2001, nematodes 2.5 × 10^9 IJs/ha, applied September 14, data October 9
Protocol: Trials 6 and 7 were conducted on stands of Kentucky bluegrass naturally infested with mixed populations of mostly third instar P. japonica and C. borealis in autumn 2001. The 1.2 by 1.2-m plots were located at the TrueGreen Technical Center in Delaware, Ohio. The nematodes were applied at 2.5×10^9 IJs/ha in trial 6 and at 5.0×10^9 IJ/ha in trial 7 with a CO2 backpack sprayer with a 10 cm boom fitted with three 8005 LP flat fan nozzles at a volume of 813 liters/ha. Plots were arranged in a randomized complete block design with 5 replications/treatment for both trials.
as §1, §2

[4] = system: white grubs, Popillia japonica and Cyclocephala borealis; assay: Pooled analysis of field trials (irrigation plus rainfall, predictability); details: nematodes at 2.5×10^9 IJs/ha, trichlorfon curatively at standard rate; mean ± S.E.
Text: as §2

[5] = Trial 1, 2000 Wooster, nematodes 2.5 × 10^9 IJs/ha applied Sept 13, halofenozide 1.61 kg a.i./ha applied July 13, observed Oct 5
[6] = Trial 2, 2001 Wooster, nematodes 2.5 × 10^9 IJs/ha Sept 12, imidacloprid 0.34 kg July 14, trichlorfon 9.0 kg Sept 12, observed Oct 10
[7] = Trial 3, 2001 Columbus, nematodes 5.0 × 10^9 IJs/ha, trichlorfon 9.0 kg, applied Sept 14, observed Oct 9
[8] = Trial 6, Columbus, trichlorfon 9.0 kg/ha
[9] = Trial 7, Columbus, trichlorfon standard rate 9.0 kg

| Structure (SMILES) | % Control [1, 5] | Mean grubs/plot [1, 5] | % Control [1, 6] | Mean grubs/plot [1, 6] | P. japonica % Control (Popillia japonica grubs) | P. japonica Mean grubs/plot (Popillia japonica grubs) | P. japonica % Control (Popillia japonica grubs; listed as IMIDACLOPRID (MERIT 75 WP)) | C. borealis % control [2] | C. borealis Mean grubs/plot [2] | % Control [1, 7] | Mean grubs/plot [1, 7] | % Control [3, 8] | Mean grubs/plot [3, 8] | % Control [3, 9] | Mean grubs/plot [3, 9] | overall percent white grub control, pooled data across all trials [4] |
| --- | --- | --- | --- | --- | --- | --- | --- | --- | --- | --- | --- | --- | --- | --- | --- | --- |
| CC(C)(C)N(NC(=O)c1ccc(Cl)cc1)C(=O)c1ccccc1 [Halofenozide] | 98% | 0.7 b grubs/plot | – | – | – | – | – | – | – | – | – | – | – | – | – | – |
| O=[N+]([O-])NC1=NCCN1Cc1ccc(Cl)nc1 [Imidacloprid] | – | – | 98% | 0.3 d grubs/plot | no effect | 17.8 a grubs/plot | 0% | 47% | 3.8 ab grubs/plot | – | – | – | – | – | – | – |
| COP(=O)(OC)C(O)C(Cl)(Cl)Cl (stereo not shown) [Trichlorfon] | – | – | 92% | 1.3 cd grubs/plot | 57% | 7.6 c grubs/plot | – | 47% | 3.8 b grubs/plot | 29% | 6.4 ab grubs/plot | 0% | 11.7 a grubs/plot | 77% | 4.0 b grubs/plot | 50.33±13.5% |
